Counter-ions that a name gives are not always drawn. Like-named read-outs stand apart in the source and are kept apart here.
Test system: Xenopus embryos
Settings: for Type of edema Ventral: ‡ = edemas also detected in the gut; for Type of edema Periocular: * = causing bulging eyes, # = bilateral, causing narrow-set eyes
Description: 10-μl aliquots of the chemicals were transferred from the mother plates with a liquid handling robot (Aquarius, Tecan) into 96-well tissue culture plates to generate diluted stock plates (2 mM in DMSO; 50 μl final volume). […] Once embryos reached stage 31 (37 hpf), 10-μl aliquots of the diluted chemicals were added to the wells. […] Negative control wells contained embryos in screening medium and 0.1×MMR only. Embryos were treated with the chemicals in a humidified incubator at 23° C. over a timeframe of 4 days. Embryos were manually scored for the presence of edema or other morphological phenotypes using a teaching dissecting microscope (SV6; Carl Zeiss). Two investigators performed separately the scoring daily at stages 39 (56 hpf), 41 (76 hpf), 45 (98 hpf), and 47 (120 hpf). Dead embryos were removed and 100 μl of water was added daily to each well to compensate for fluid evaporation. […] For imaging at the end of the experiments. Xenopus tadpoles were anesthetized with 0.05% tricaine (Sigma #A5040) in 0.1×MMR. Images were captured using a stereomicroscope (SteREO Lumar V12; Carl Zeiss) equipped with a digital camera (AxioCam Color; Carl Zeiss).
Xenopus late tailbud embryos at stage 31 (37 hpf) were selected for compound treatment. […] Embryos were arrayed into 48-well dishes (five per well) and treated with test compounds at a concentration of 20 μM in the presence of 1% DMSO. […] All 48-well dishes also contained replicates of negative controls (1% DMSO). Embryos were monitored daily over a period of four days for edema formation. In addition, drug-induced lethality and other externally visible phenotypes were scored. On average, 320 compounds were screened per week.

[1] = onset of other phenotypic defects, 20 μM, 1% DMSO
[2] = compounds causing cytotoxicity, 20 μM, 1% DMSO, treatment from stage 31, Nieuwkoop & Faber stage
[3] = compounds causing lethality, 20 μM, 1% DMSO, treatment from stage 31, Nieuwkoop & Faber stage
[4] = compounds causing edema, 20 μM, 1% DMSO, treatment from stage 31, scored to stage 47
[5] = embryonic stage, — = no stage of lethality given
[6] = onset of edema, 20 μM, 1% DMSO, treatment from stage 31, Nieuwkoop & Faber stage
[7] = onset of pigmentation defects, 20 μM, 1% DMSO

## C[C@]12CC[C@H](O)CC1=CC[C@@H]1[C@@H]2CC[C@]2(C)C(=O)CC[C@@H]12 [trans-Dehydroandrosterone, 5-Androsten-3beta.ol-17-one]
[1]
  Onset (NF): 41/42

## O=C(O)c1cc([N+](=O)[O-])ccc1NCCCc1ccccc1 [5-Nitro-2-(3-phenylpropylamino)benzoic acid]
[2]
  Lethality (NF): 32 NF

## CCCCCCCCCCCCCCCCCCOCC(COP(=O)([O-])OCC[N+](C)(C)C)OC (centres unmarked) [ET-18-OCH3, 3,5,9-Trioxa-4-phosphaheptacosan-1-aminium]
[3]
  Lethality (NF): 37/38

## CCOC(=O)C1=C(C)NC(C)=C(C(=O)OC)C1c1cccc([N+](=O)[O-])c1 (centres unmarked) [Nitrendipine, 1,4-Dihydro-2,6-dimethyl-4-(3-nitrophenyl)-3,5-pyridinecarboxylic acid ethyl methyl ester]
[3]
  Lethality (NF): 45 NF

## CCCCCCCC/C=C\CCCCCCCC(=O)NCCc1ccc(O)c(O)c1 [N-Oleoyldopamine]
[3]
  Lethality (NF): 41 NF

## CC1(C)CCC2=C(O1)c1ccccc1C(=O)C2=O [beta-Lapachone]
[2]
  Lethality (NF): 32 NF

## CC(=O)c1c(O)c(C)c(O)c(Cc2c(O)c3c(c(C(=O)/C=C/c4ccccc4)c2O)OC(C)(C)C=C3)c1O [Rottlerin]
[2]
  Lethality (NF): 32 NF

## O=C(c1cc(O)c(O)c([N+](=O)[O-])c1)c1ccccc1F [Ro 41-0960, 2′-Fluoro-3,4-dihydroxy-5-nitrobenzophenone]
[2]
  Lethality (NF): 33/34

## N#CCCN.N#CCCN.O=C(O)/C=C/C(=O)O [3-Aminopropionitrile fumarate]
[1]
  Onset (NF): 46 NF

## CCCCCCCCCCCCCCCCCC(=O)OC(CC(=O)O)C[N+](C)(C)C.[Cl-] (racemic) [DL-Stearoylcarnitine chloride]
[3]
  Lethality (NF): 41 NF

## c1ccc2c(c1)[I+]c1ccccc1-2 [Diphenyleneiodonium chloride, [1,1′-Biphenyl]-2,2′-diyiodonium chloride]
Xenopus laevis, in vivo
  Lethality (NF): 42 NF

## O=c1[nH]c2ccccc2n1C1CCN(CCCC(c2ccc(F)cc2)c2ccc(F)cc2)CC1 [Pimozide]
[4]
  Lethality (NF): 45 NF
Embryonic stage
  Type of edema Pericordial: 41/42
  Type of edema Pronephric: 41/42
  Type of edema Ventral: 41/42
[5]
  Lethality: 45 embryonic stages according to Nieuwkoop and Faber (NF)
[6]
  Onset (NF): 41/42

## C=C[C@@]1(C)CC(=O)[C@]2(O)[C@@]3(C)[C@@H](O)CCC(C)(C)[C@@H]3[C@H](O)[C@H](OC(C)=O)[C@@]2(C)O1 [Forskolin]
[4]
  Lethality (NF): 41/42
Embryonic stage
  Type of edema Pericordial: 39 embryonic stages according to Nieuwkoop and Faber (NF)
  Type of edema Proctodeal: 39 embryonic stages according to Nieuwkoop and Faber (NF)
  Type of edema Ventral: 39 embryonic stages according to Nieuwkoop and Faber (NF)
[5]
  Lethality: 41/42
[6]
  Onset (NF): 39/40

## C[C@H](NC(=O)Cc1cc(F)cc(F)c1)C(=O)N[C@H]1N=C(c2ccccc2)c2ccccc2N(C)C1=O [compound E]
20 μM, 1% DMSO, treatment from stage 31
  edema or other phenotype in compound-treated Xenopus embryos/tadpoles (in words): potently induces edemas

## CCNC(=O)N1CCN(CCCC(c2ccc(F)cc2)c2ccc(F)cc2)CC1.Cl [Amperozide hydrochloride, 4-[4,4-bis(4-Fluorophenyl)butyl]-N-ethyl-1-piperazinecarboxamide hydrochloride]
Embryonic stage
  Type of edema Pericordial: 41/42
  Type of edema Periocular: 45 embryonic stages according to Nieuwkoop and Faber (NF)
  Type of edema Ventral: 41/42
[6]
  Onset (NF): 41/42

## O=c1c2ccccc2[nH]c(=S)n1CCN1CCC(=C(c2ccc(F)cc2)c2ccc(F)cc2)CC1 [Diacylglycerol Kinase Inhibitor II]
Embryonic stage
  Type of edema Pronephric: 45 embryonic stages according to Nieuwkoop and Faber (NF)
  Type of edema Periocular: 46 embryonic stages according to Nieuwkoop and Faber (NF)
  Type of edema Ventral: 41/42
[6]
  Onset (NF): 41/42

## S=C(OC1CC2CC1C1CCCC21)[S][K] [D-609 potassium, Carbonodithioic acid, O-(octahydro-4,7-methano-1H-inden-5-yl) ester potassium]
[2]
  Lethality (NF): 33/34

## CS(=O)(=O)O.Cc1c(C(=O)c2cccc3ccccc23)c2cccc3c2n1[C@H](CN1CCOCC1)CO3 [(R)-(+)-WIN 55,212-2 mesylate, (R)-(+)-[2,3-Dihydro-5-methyl-3[(morpholinyl)methyl]pyrrolo[1,2,3-de]-1,4-benzoxazinyl]-(1-naphthalenyl)methanone mesylate]
[2]
  Lethality (NF): 32 NF

## S=C(Nc1ccccc1)Nc1nccs1 [1-Phenyl-3-(2-thiazolyl)-2-thiourea]
[7]
  Onset (NF): 33/34

## O=c1[nH]c2ccccc2c2ccccc12 [6(5H-Phenanthridinone, 6(5H)-Phenanthridinone]
[4]
  Lethality (NF): 47 NF
Embryonic stage
  Type of edema Pericordial: 45 embryonic stages according to Nieuwkoop and Faber (NF)
  Type of edema Periocular: 45 embryonic stages according to Nieuwkoop and Faber (NF)
  Type of edema Ventral: 45 embryonic stages according to Nieuwkoop and Faber (NF)
[5]
  Lethality: 47 embryonic stages according to Nieuwkoop and Faber (NF)

## Br.C=CCN1CCc2cccc3c2[C@H]1Cc1ccc(O)c(O)c1-3 [R(-)-N-Allylnorapomorphine hydrobromide]
Compounds causing pigmentation defects, 20 μM, scored to stage 47
  Lethality (NF): 40 NF
[7]
  Onset (NF): 33/34

## C[C@@]12C(=O)OC(=O)[C@]1(C)[C@H]1CC[C@@H]2O1 [Cantharidin]
[2]
  Lethality (NF): 32 NF

## Ivermectin
[3]
  Lethality (NF): 41/42

## CCCCCCCCCCCCCCCCOC[C@H](COCC(F)(F)F)OP(=O)(O)OC.[Li] [MJ33, 1-Hexadecyl-3-(trifluoroethyl)-sn-glycero-2-phosphomethanol lithium]
[2]
  Lethality (NF): 32 NF

## Cc1c(CC(C)(C)C(=O)O)n(Cc2ccc(Cl)cc2)c2ccc(F)cc12 [L-655,240, 3-[1-(4-Chlorobenzyl)-5-fluoro-3-methyl-indol-2-yl]-2,2-dirriethyl propanoic acid]
[2]
  Lethality (NF): 32 NF

## CC(C)(C)c1cc(C=C(C#N)C(N)=S)cc(C(C)(C)C)c1O [Tyrphostin AG 879, alpha-cyano-(3,5-di-t-butyl-4-hydroxy)thiocinnamide]
[2]
  Lethality (NF): 32 NF

## COc1ccc(CCCOC(Cn2ccnc2)c2ccc(OC)cc2)cc1.Cl (stereo not drawn) [SKF 96365, 1-(beta-[3-(4-Methoxyphenyl)propoxy]-4-methoxyphenethyl)-1H-imidazole hydrochloride]
[4]
  Lethality (NF): 41/42
Embryonic stage
  Type of edema Pericordial: 39 embryonic stages according to Nieuwkoop and Faber (NF)
  Type of edema Proctodeal: 40 embryonic stages according to Nieuwkoop and Faber (NF)
  Type of edema Ventral: 40 embryonic stages according to Nieuwkoop and Faber (NF)
[5]
  Lethality: 41/42

## CCn1cc(C(=O)O)c(=O)c2ccc(Cc3ccccc3)nc21 [Amfonelic acid, 7-Benzyl-1-ethyl-1,4-dihydro-4-oxo-1,8-naphthyridine-3-carboxylic acid]
[7]
  Onset (NF): 33/34

## CN[C@@H](C)[C@H](O)c1ccccc1.CN[C@@H](C)[C@H](O)c1ccccc1.O=S(=O)(O)O [(-)-Ephedrine hemisulfate]
[7]
  Onset (NF): 33/34

## C=C(C)[C@H]1Cc2c(ccc3c2O[C@@H]2COc4cc(OC)c(OC)cc4[C@@H]2C3=O)O1 [Rotenone]
[2]
  Lethality (NF): 32 NF

## C[n+]1cc2c3c(ccc2c2ccc4cc5c(cc4c21)OCO5)OCO3.[Cl-] [Sanguinarine chloride, 13-Methyl-[1,3]benzodioxolo[5,6-c]-1,3-dioxolo[4,5-i]phenanthridinium chloride]
[2]
  Lethality (NF): 32 NF

## COC1=C(OC)C(=O)c2ccccc2C1=O [2,3-Dimethoxy-1,4-naphthoquinone]
Compounds causing other phenotypic defects, 20 μM, scored to stage 47
  Lethality (NF): 42 NF

## C[N+](C)(C)CCC(=O)c1cccc2ccccc12.[I-] [2-(alpha-Naphthoyl)ethyltrimethylammonium iodide]
[2]
  Lethality (NF): 32 NF

## O=c1c2ccccc2[se]n1-c1ccccc1 [Ebselen, 2-Phenyl-1,2-benzisoselenazol-3(2H)-one]
[2]
  Lethality (NF): 32 NF

## CNc1ccc2oc(C[C@H]3O[C@@]4(CC[C@H]3C)O[C@H]([C@H](C)C(=O)c3ccc[nH]3)[C@H](C)C[C@H]4C)nc2c1C(=O)O [Calcimycin]
[2]
  Lethality (NF): 32 NF

## Nc1nc2ccc(Cl)cc2c2nc(-c3ccco3)nn12 [CGS -15943]
Embryonic stage
  Type of edema Pericordial: 41/42
  Type of edema Pronephric: 45 embryonic stages according to Nieuwkoop and Faber (NF)
  Type of edema Ventral: 45 embryonic stages according to Nieuwkoop and Faber (NF)
In vivo
  Lethality: 46 embryonic stages according to Nieuwkoop and Faber (NF)

## R(-)-Propylnorapomorphine hydrochloride
[7]
  Onset (NF): 33/34

## CN1CCC[C@@H]1CCO[C@](C)(c1ccccc1)c1ccc(Cl)cc1 [Clemastine fumarate]
Embryonic stage
  Type of edema Pericordial: 46 embryonic stages according to Nieuwkoop and Faber (NF)
  Type of edema Periocular: 46 embryonic stages according to Nieuwkoop and Faber (NF)
  Type of edema Ventral: 45 embryonic stages according to Nieuwkoop and Faber (NF)

Source: patent US9945845B2, “Methods of screening using amphibians” (priority 2009, dated 2018)
